Measurements taken from patent US4199592A, “Antiinflammatory 4,5-diaryl-2-nitroimidazoles” (E. I. Du Pont de Nemours and Company, priority 1979, dated 1980).
Like-named read-outs stand apart in the source and are kept apart here.

Key:
[1] = test system: adjuvant-induced arthritis in rats; assay: Established Adjuvant-Induced Arthritis in Rats (A.A.); type: in vivo, Charles River Lewis male rats; settings: Rattus norvegicus, 24 h, read-out: A.A. ED50% (ED50% decrease from control paw volume)
[2] = test system: stretching or writhing syndrome indicative of pain induced by phenylquinone; assay: Phenylquinone Writhing Test; type: in vivo, female white mice; settings: Mus musculus, 0.5 h; oral, fasted mice; at 1/2 hour; read-out: ED50 (effective analgesic dose for 50% of the mice)
Protocol: Phenylquinone Writhing Test
A standard procedure for detecting and comparing the analgesic activity of compounds in this series for which there is good correlation with human efficacy is the standard phenylquinone writhing test modified from Siegmund, et al., Proc. Soc. Exp. Biol. Med. 95, 729 (1957). A test compound suspended in 1% methylcellulose was given orally to fasted (17-21 hours) female white mice, 5-20 animals per double blind test. Aqueous (0.01% phenyl-p-benzoquinone) phenylquinone was injected intraperitoneally at 24 minutes later using 0.20 ml per mouse. […] The effective analgesic dose for 50% of the mice (ED50) was calculated by the moving average method of Thompson, W. R., Bact. Rev. 11, 115-145 (1947); also time of peak action was determined for many of the compounds.

[3] = oral, rats, 7 daily doses by gavage, paw volume of uninjected left hind paw one day after last dose

SMILES: CC(C)Cc1ccc(C(C)C(=O)O)cc1 (centres unmarked) [Ibuprofen, ibuprofen]
- ED50 [1, 3]: 100 mg/kg

SMILES: CCCCC1C(=O)N(c2ccccc2)N(c2ccccc2)C1=O [Phenylbutazone, phenylbutazone]
- ED50 [1, 3]: 10 mg/kg

SMILES: CC(=O)Oc1ccccc1C(=O)O [Aspirin, aspirin]
- ED50 ([1]; po): 305 mg/kg

SMILES: COc1ccc2c(c1)c(CC(=O)O)c(C)n2C(=O)c1ccc(Cl)cc1 [Indomethacin, indomethacin]
- ED50 ([1]; po): 0.3 mg/kg

SMILES: O=[N+]([O-])c1nc(-c2ccc(F)cc2)c(-c2ccc(F)cc2)[nH]1 [Example 1, 4,5-bis(4-Fluorophenyl)-2-nitroimidazole]
- ED50 [2]: 59 mg/kg
- ED50 [1, 3]: 0.6 mg/kg

SMILES: COc1ccc(-c2nc([N+](=O)[O-])[nH]c2-c2ccc(OC)cc2)cc1 [Example 2, 4,5-bis(4-Methoxyphenyl)-2-nitroimidazole]
- ED50 [2]: < 130 mg/kg
- ED50 [1, 3]: 2.5 mg/kg
